Assay results as given in patent US11629155B2, “Small molecule antagonist compound TAC5 series having toll-like receptor 3/7/8/9 inhibitory function” (AJOU UNIVERSITY INDUSTRY-ACADEMIC COOPERATION FOUNDATION, priority 2018, dated 2023).

Legend:
Assay type in all cases: cell-based
[1] = target: T1, TLR3 (Homo sapiens, UniProt O15455); test: poly(I:C)-induced TNF-α or IL-6 secretion in THP1-derived macrophages; details: dose-dependent manner, FIGS. 4E-4G
T1 construct: endogenous in cells; host or cells: THP1-derived macrophages (PMA-differentiated)
T1 sequence (O15455 24-904): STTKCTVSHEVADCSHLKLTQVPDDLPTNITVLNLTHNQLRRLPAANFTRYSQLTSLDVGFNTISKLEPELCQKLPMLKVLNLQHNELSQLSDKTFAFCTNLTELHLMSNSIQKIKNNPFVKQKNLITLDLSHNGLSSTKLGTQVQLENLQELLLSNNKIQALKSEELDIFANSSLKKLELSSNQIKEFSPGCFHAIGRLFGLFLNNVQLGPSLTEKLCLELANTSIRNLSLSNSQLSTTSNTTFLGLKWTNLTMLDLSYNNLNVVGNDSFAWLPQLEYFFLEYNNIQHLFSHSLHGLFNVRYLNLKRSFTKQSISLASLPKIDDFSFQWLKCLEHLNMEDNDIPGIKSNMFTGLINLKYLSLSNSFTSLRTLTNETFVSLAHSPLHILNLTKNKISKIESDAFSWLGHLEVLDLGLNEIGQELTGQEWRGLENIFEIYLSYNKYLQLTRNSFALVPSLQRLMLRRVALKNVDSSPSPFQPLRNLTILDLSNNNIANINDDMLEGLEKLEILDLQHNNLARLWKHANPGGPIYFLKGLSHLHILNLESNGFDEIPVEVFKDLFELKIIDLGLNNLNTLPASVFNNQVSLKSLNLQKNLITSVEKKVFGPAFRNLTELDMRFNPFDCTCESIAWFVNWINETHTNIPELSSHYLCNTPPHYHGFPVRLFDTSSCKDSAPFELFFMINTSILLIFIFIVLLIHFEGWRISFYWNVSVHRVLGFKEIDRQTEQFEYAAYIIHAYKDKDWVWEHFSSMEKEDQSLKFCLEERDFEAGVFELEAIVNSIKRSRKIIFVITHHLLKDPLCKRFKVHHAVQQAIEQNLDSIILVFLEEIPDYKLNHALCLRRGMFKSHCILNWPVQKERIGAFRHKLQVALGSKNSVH

[2] = target: T2, TLR7 (Homo sapiens, UniProt Q9NYK1); test: IMQ, R848 or CL075-induced TNF-α or IL-6 secretion in THP1-derived macrophages; details: R848 or CL075, dose-dependent manner, FIGS. 4E-4G
T2 construct: endogenous in cells; host or cells: THP1-derived macrophages (PMA-differentiated)
T2 sequence (Q9NYK1 27-1049): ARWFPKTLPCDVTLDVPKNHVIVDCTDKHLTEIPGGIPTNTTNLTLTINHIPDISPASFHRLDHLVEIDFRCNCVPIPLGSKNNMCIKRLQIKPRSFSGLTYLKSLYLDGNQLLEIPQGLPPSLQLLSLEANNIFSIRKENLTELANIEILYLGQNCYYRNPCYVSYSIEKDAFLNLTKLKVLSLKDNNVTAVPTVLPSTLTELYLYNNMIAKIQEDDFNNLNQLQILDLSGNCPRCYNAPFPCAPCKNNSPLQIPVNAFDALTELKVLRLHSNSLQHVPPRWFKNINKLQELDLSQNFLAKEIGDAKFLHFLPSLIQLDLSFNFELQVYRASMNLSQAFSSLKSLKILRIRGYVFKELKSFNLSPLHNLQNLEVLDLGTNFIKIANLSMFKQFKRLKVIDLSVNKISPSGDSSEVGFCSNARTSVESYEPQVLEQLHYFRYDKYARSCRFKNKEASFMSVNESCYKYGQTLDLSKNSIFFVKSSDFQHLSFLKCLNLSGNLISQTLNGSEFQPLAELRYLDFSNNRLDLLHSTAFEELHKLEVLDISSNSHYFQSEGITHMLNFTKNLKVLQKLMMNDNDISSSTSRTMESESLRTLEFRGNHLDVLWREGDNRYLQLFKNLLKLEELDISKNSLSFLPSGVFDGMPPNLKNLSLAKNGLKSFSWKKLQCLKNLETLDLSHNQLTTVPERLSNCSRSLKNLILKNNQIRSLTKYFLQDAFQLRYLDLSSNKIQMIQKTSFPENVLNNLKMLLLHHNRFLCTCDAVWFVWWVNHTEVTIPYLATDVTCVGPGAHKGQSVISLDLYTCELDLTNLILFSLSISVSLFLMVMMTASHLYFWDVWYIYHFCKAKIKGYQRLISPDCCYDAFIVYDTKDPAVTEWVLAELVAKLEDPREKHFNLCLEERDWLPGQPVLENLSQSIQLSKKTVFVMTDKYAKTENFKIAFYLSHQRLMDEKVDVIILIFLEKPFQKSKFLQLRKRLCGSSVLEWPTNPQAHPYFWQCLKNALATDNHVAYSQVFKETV

[3] = target: T3, TLR9 (Homo sapiens, UniProt Q9NR96); test: CpG ODN-induced TNF-α or IL-6 secretion in THP1-derived macrophages; details: dose-dependent manner, FIGS. 4E-4G
T3 construct: endogenous in cells; host or cells: THP1-derived macrophages (PMA-differentiated)
T3 sequence (Q9NR96 26-1032): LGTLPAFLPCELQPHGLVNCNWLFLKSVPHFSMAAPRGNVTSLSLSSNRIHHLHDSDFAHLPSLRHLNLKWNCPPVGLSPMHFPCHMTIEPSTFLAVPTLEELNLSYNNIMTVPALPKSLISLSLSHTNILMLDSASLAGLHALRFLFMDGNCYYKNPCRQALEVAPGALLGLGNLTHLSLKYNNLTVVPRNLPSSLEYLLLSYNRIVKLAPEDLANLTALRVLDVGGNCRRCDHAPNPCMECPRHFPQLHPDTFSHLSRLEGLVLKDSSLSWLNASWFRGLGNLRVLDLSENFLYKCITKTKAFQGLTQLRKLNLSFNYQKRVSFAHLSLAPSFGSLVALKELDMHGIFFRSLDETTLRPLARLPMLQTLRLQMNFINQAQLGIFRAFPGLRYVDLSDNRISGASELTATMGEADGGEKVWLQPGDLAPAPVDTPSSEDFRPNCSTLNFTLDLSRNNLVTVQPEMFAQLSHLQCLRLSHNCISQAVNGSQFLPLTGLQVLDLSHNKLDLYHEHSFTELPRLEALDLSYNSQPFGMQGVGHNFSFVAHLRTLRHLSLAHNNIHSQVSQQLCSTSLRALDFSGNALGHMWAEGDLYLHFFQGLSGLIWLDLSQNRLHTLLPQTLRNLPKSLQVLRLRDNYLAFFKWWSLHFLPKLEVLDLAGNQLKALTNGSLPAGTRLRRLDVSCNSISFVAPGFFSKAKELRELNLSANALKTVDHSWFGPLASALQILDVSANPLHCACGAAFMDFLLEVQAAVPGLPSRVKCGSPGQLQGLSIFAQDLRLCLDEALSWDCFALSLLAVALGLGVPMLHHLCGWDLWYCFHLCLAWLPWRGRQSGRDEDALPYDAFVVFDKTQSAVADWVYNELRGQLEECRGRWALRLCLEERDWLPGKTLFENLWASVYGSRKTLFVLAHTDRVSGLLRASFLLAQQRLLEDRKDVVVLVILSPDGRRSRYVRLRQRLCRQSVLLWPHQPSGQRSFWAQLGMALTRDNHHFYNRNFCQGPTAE

Nc1cccc(COc2cccnc2N)c1 [TAC5-a, 3-((3-aminobenzyl)oxy)pyridin-2-amine]
significantly inhibited: TLR3-mediated TNF-α or IL-6 secretion [1] | TLR7-mediated TNF-α or IL-6 secretion [2] | TLR9-mediated TNF-α or IL-6 secretion [3]
